{
  "source": "ChEMBL document CHEMBL1201862",
  "about": "“PubChem BioAssay data set” (2004)",
  "key": {"Prothrombin": {"biological_target": "Prothrombin (Homo sapiens, UniProt P00734)", "test": "Thrombin 1536 HTS Dose Response Confirmation. [Related pubchem assays: 1046 (Thrombin 1536 HTS; hits were confirmed in this assay)]", "type": "functional"}, "HEK293 [1]": {"system": "HEK293", "test": "cells", "type": "functional, cell-based", "conditions": "Homo sapiens"}, "HEK293 [2]": {"system": "HEK293", "test": "cells", "type": "functional, cell-based", "conditions": "Homo sapiens", "remark": "listed apart in the source"}, "[3]": {"test": "Shn3 3'UTR reporter inhibitors, dose response, cell-based, Clone20 osteoblasts, firefly luciferase, cherry-picked (AID 624132)", "type": "functional"}, "HEK293 [4]": {"system": "HEK293", "test": "NOD2 signaling inhibitors in MDP-stimulated cells, cell-based, uHTS, luminescence (AID 2001)", "type": "functional", "conditions": "Homo sapiens"}, "INS1": {"system": "INS1", "test": "beta cell apoptosis inhibitors, cytokine rescue, dose response, luminescence, retest (AID 449756);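 further: cell death triggered by IL-1 beta plus TNF-alpha plus IFN-gamma mixture; protective hits raise ATP signal compared with cytokine alone wells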", "type": "functional, cell-based", "conditions": "Rattus norvegicus"}, "HEK293 [5]": {"system": "HEK293", "test": "cells", "conditions": "Homo sapiens"}, "Tumor necrosis factor": {"biological_target": "Tumor necrosis factor (Homo sapiens, UniProt P01375)", "sequence (P01375 whole entry)": "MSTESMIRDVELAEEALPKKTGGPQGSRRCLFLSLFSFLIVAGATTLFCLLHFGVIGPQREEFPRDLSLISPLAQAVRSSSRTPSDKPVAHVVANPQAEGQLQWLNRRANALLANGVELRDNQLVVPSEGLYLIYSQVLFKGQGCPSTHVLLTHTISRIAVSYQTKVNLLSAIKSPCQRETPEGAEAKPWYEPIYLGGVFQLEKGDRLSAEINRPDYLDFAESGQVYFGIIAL", "test": "TNFa-triggered NF-kB activation inhibitors, SAR follow-up, cell-based, revised (AID 2337)", "type": "functional"}, "[6]": {"biological_target": "T1, COUP transcription factor 2 (Homo sapiens, UniProt P24468)", "T1 sequence (P24468 whole entry)": "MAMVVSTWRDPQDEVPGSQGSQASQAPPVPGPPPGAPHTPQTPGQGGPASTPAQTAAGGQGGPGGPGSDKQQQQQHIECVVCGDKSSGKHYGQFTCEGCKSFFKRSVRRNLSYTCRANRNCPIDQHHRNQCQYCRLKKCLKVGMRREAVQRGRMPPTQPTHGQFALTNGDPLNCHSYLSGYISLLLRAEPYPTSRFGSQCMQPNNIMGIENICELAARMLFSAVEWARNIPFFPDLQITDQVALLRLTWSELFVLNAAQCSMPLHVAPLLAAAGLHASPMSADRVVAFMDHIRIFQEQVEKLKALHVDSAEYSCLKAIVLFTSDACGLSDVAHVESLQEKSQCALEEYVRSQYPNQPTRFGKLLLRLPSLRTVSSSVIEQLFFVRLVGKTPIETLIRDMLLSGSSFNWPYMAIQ", "test": "Luminescence-based cell-based high throughput dose response assay to identify inhibitors of COUP-TFII (NR2F2).", "type": "functional"}, "[7]": {"test": "control 3'UTR Renilla luciferase suppression, dose response, counter-screen for Shn3 inhibitor project, cell-based, Clone20-Shn3RL, cherry-picked (AID 624133)", "type": "functional"}, "HEK293 [8]": {"system": "HEK293", "test": "NOD1 signaling inhibitors, primary screen, cell-based, luminescence, uHTS (AID 1578)", "type": "functional", "conditions": "Homo sapiens"}, "[9]": {"biological_target": "T2, Nucleotide-binding oligomerization domain-containing protein 1 (Homo sapiens, UniProt Q9Y239)", "T2 sequence (Q9Y239 whole entry)": "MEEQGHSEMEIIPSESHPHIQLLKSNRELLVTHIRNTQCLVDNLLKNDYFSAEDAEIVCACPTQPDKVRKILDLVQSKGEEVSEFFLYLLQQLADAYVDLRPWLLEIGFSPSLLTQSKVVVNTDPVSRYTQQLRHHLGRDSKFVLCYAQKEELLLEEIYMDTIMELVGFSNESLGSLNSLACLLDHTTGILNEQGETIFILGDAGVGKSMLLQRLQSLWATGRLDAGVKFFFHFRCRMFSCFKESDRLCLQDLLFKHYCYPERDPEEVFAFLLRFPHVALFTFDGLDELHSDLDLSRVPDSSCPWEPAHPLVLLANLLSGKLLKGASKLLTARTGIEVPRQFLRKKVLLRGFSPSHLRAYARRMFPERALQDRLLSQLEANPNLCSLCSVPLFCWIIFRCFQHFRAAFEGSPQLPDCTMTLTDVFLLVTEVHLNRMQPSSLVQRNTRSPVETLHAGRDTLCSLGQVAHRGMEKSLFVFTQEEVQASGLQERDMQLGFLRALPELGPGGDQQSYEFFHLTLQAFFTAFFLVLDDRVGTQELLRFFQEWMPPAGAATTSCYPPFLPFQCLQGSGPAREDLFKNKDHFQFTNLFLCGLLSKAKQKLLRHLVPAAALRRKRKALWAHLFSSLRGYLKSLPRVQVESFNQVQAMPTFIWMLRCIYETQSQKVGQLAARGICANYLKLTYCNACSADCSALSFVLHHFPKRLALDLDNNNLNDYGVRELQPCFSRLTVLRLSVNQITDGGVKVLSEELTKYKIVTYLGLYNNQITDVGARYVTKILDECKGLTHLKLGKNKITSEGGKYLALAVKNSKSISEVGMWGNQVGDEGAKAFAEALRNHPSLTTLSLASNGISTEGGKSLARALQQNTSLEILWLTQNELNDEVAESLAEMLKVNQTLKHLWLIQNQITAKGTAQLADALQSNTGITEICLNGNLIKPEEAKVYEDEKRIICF", "test": "NOD1 signaling inhibitors, SAR follow-up, revised (AID 2333)", "type": "functional"}, "[10]": {"test": "Luminescence-based dose response cell-based high throughput screening assay for cytotoxic compounds using the IEC-6 intestinal epithelial cell line. [Related pubchem assays: 1858 (Summary AID.), 1825 (Counterscreen.), 1907 (Confirmation screen.)]", "type": "functional"}, "[11]": {"test": "cytotoxicity toward NIH3T3 fibroblasts, dose response, counter-screen, cell-based, ATP luminescence, mouse fibroblasts (AID 2010);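 further: cells exposed to compound for about 90 hours before reading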", "type": "functional"}, "[12]": {"test": "cytotoxicity toward DRD oncogenic fibroblasts, dose response, cell-based, non-viral oncogenic, luminescence (AID 1934)", "type": "functional", "conditions": "Homo sapiens"}, "[13]": {"test": "inhibitors of intracellular T. cruzi replication, confirmation, NIH3T3 host cells, beta-gal luminescence (AID 2044);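 further: luminescent beta-galactosidase reporter signal from transgenic T. cruzi replicating inside host cells; inhibitors lower the luminescence signal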", "type": "functional, cell-based"}, "[14]": {"test": "cytotoxicity in HEK-293T cells, dose response, cytotoxicity control for TCR NF-kB inhibitor project, luminescence, T-cell screen hits (AID 489026);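 further: cells exposed to compound about 14 hours before the viability readout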", "type": "functional, cell-based"}, "BJ [15]": {"system": "BJ", "test": "cells", "type": "functional, cell-based", "conditions": "Homo sapiens"}, "BJ [16]": {"system": "BJ", "test": "cytotoxicity toward BJ-TERT-LT-ST fibroblasts, dose response, cell-based, RAS-independent, luminescence (AID 1935);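 further: BJ fibroblasts immortalized with TERT plus LT and ST oncogenes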", "type": "functional", "conditions": "Homo sapiens"}, "BJ [17]": {"system": "BJ", "test": "cytotoxicity toward BJ-TERT fibroblasts, dose response, cell-based, RAS-independent, luminescence (AID 1933)", "type": "functional", "conditions": "Homo sapiens"}, "Hexokinase HKDC1": {"biological_target": "T3, Hexokinase HKDC1 (Homo sapiens, UniProt Q2TB90)", "T3 sequence (Q2TB90 whole entry)": "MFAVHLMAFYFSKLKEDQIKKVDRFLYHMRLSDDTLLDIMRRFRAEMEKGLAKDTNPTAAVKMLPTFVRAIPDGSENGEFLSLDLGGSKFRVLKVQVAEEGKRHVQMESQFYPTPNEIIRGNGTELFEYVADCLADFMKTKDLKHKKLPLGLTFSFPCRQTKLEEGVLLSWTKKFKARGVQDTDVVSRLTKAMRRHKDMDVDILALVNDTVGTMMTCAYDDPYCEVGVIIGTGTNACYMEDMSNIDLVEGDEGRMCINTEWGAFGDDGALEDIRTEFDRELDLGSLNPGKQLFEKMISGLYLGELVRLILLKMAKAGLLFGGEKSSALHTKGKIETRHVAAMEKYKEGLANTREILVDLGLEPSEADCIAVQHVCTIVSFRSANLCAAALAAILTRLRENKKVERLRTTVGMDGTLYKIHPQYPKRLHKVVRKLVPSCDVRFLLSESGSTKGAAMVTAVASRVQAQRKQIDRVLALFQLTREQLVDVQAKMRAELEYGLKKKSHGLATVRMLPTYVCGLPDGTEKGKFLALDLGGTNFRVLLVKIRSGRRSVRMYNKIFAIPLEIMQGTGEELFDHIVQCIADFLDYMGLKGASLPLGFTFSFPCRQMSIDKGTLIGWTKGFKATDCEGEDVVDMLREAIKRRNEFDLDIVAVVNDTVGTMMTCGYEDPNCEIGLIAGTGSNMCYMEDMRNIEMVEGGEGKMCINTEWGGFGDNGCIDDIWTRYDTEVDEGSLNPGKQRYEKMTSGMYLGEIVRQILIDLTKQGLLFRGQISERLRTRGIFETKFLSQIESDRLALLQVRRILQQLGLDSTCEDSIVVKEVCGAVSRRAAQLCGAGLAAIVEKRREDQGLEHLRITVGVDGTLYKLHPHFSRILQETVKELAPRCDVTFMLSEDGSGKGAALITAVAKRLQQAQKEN", "test": "HKDC1 hexokinase inhibitors, dose response, biochemical, W721R variant (AID 504729)", "type": "functional"}, "[18]": {"test": "inhibitors of PGC1a acetylation in cells, dose response, cell-based, cherry-picked samples (AID 720514);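 further: potency may reflect raised or lowered acetylation signal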", "type": "functional"}, "[19]": {"test": "cytotoxicity in HEK-293T cells, dose response, cytotoxicity control for BCR NF-kB inhibitor project, luminescence, B-cell screen hits (AID 489021);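 further: cells exposed to compound for about 14 hours before viability readout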", "type": "functional, cell-based"}, "[20]": {"biological_target": "T4, Mannose-6-phosphate isomerase (Homo sapiens, UniProt P34949)", "T4 sequence (P34949 whole entry)": "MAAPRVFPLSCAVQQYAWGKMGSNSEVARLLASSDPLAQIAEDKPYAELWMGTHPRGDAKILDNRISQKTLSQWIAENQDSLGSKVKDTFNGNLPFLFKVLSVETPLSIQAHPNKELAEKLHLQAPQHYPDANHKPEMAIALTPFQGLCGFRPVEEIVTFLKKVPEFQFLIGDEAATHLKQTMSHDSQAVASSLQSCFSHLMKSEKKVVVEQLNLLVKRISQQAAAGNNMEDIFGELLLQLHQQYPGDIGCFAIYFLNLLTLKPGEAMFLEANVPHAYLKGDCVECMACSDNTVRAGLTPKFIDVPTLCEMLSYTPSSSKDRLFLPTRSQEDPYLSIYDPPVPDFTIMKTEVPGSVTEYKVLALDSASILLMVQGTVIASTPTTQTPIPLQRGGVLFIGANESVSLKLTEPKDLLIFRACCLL", "test": "human PMI inhibitors, high substrate, primary screen, biochemical, fluorescence intensity, high mannose 6-phosphate (AID 1220)"}},
  "note": "Activity calls are given as the source filed them.",
  "data": [
    {"smiles": "COc1cccc(-c2nnc(SCC(=O)Nc3ccc4c(c3)OCCO4)n2Cc2ccco2)c1", "values": [
      {"measurement": "IC50", "setting": "Prothrombin", "result": "> 50000 nM (not active)"}
    ]},
    {"smiles": "Cc1cc(C(=O)NC2CCCc3c2cnn3-c2cccc(C)c2C)n(C)n1", "note": "(stereo not given)", "values": [
      {"measurement": "IC50", "setting": "HEK293 [1]", "result": "922 nM (active)"},
      {"measurement": "IC50", "setting": "HEK293 [2]", "result": "> 20000 nM (inactive)"},
      {"measurement": "AC50", "setting": "[3]", "result": "< 260 nM (active)"},
      {"measurement": "IC50", "setting": "HEK293 [4]", "result": "609 nM (inactive)"},
      {"measurement": "AC50", "setting": "INS1", "result": "216 nM (active)"},
      {"measurement": "IC50", "setting": "HEK293 [5]", "result": "> 20000 nM (inactive)"},
      {"measurement": "IC50", "setting": "Tumor necrosis factor", "result": "703 nM (active)"},
      {"measurement": "IC50", "setting": "[6]", "result": "628 nM (active)"},
      {"measurement": "AC50", "setting": "[7]", "result": "< 260 nM (active)"},
      {"measurement": "EC50", "setting": "HEK293 [8]", "result": "170 nM (active)"},
      {"measurement": "IC50", "setting": "[9]", "result": "289 nM (active)"}
    ]},
    {"smiles": "CC(=O)O[C@@]12CO[C@@H]1C[C@@H](O)[C@@]1(C)C(=O)[C@H](O)C3=C(C)[C@@H](OC(=O)[C@H](O)[C@@H](NC(=O)c4ccccc4)c4ccccc4)C[C@@](O)([C@@H](OC(=O)c4ccccc4)C12)C3(C)C", "note": "(stereo not given in full)", "values": [
      {"measurement": "IC50", "setting": "[10]", "result": "157 nM (active)"},
      {"measurement": "EC50", "setting": "[11]", "result": "5970 nM (active)"},
      {"measurement": "EC50", "setting": "[12]", "result": "567 nM (active)"},
      {"measurement": "EC50", "setting": "[13]", "result": "< 100 nM (active)"},
      {"measurement": "EC50", "setting": "cells", "result": "22 nM (active)"},
      {"measurement": "IC50", "setting": "[14]", "result": "> 80000 nM (inactive)"},
      {"measurement": "EC50", "setting": "BJ [15]", "result": "44800 nM (inconclusive)"},
      {"measurement": "EC50", "setting": "BJ [16]", "result": "434 nM (inconclusive)"},
      {"measurement": "EC50", "setting": "BJ [17]", "result": "645 nM (active)"}
    ]},
    {"smiles": "COc1ccc(OC)c2nc(O)c(CCNC(=O)c3cc4ccccc4o3)cc12", "values": [
      {"measurement": "IC50", "setting": "Hexokinase HKDC1", "result": "20400 nM (inactive)"}
    ]},
    {"smiles": "N#Cc1cccc(-c2ccc([C@@H]3[C@@H]4CN(Cc5ccccc5F)C[C@H]3N4)cc2)c1", "values": [
      {"measurement": "AC50", "setting": "[18]", "result": "8090 nM (active)"}
    ]},
    {"smiles": "COc1ccc(C(=O)Nc2nnc(SCC(=O)Nc3ccc(NC(C)=O)cc3)s2)c(OC)c1", "values": [
      {"measurement": "IC50", "setting": "[19]", "result": "> 80000 nM (inactive)"}
    ]},
    {"smiles": "Cc1cccc(NCc2ccc(O)c3ncccc23)c1", "values": [
      {"measurement": "IC50", "setting": "[20]", "result": "> 50000 nM (not active)"}
    ]}
  ]
}
